# Measurements published in patent US9409952B2, “Peptide-compound cyclization method” (Chugai Seiyaku Kabushiki Kaisha, priority 2011, dated 2016).
# Like-named read-outs stand apart in the source and are kept apart here. Starred links: 1 amine or outer side, 2 acyl side, 3 side chain; linkers in the order of their positions; H or OH if unused. Positions of bridges follow the written chain, without caps; N, C: chain ends. Non-standard residues stand in square brackets, D forms with d. Residues, ends and D or L forms follow the SMILES beside them. ξ: configuration not given here. *: point of attachment. Phe(3-(CH2)4CO) = O=C([C@H](Cc1cccc(CCCCC(=O)[*:3])c1)N[*:1])[*:2]; NMeF = CN[C@@H](Cc1ccccc1)C(=O)O; NMeI = CC[C@H](C)[C@H](NC)C(=O)O; NMeβAla = CN(CCC(=O)[*:2])[*:1]; NMeL = CN[C@@H](CC(C)C)C(=O)O; NMeV = CN[C@H](C(=O)O)C(C)C; NMeA = CN[C@@H](C)C(=O)O; Piperidide = C1CCN(*)CC1; dNMeA = CN[C@H](C)C(=O)O; β3hA = C[C@H](N)CC(=O)O; ξP = O=C(O)C1CCCN1; Sar = CNCC(=O)O; tBu = CC(C)(C)*
# What was measured:
# [1] = PAMPA (parallel artificial membrane permeability assay); type: in vitro ADME; settings: for Papp at 18 hours, 50 µM: PAMPA
# How it was run: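 Artificial membrane was 10% (w/v) egg lecithin plus 0.5% (w/v) cholesterol in dodecane on a PVDF filter. A 10 mM DMSO stock was added at 0.5% (v/v) to donor buffer (50 mM MOPSO, pH 6.5, 5.0% glycocholic acid). After 18 h at 37 °C, LC/MS or LC/UV gave donor and acceptor levels for Pe.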
# [2] = Metabolic stability in human hepatic microsome; type: in vitro ADME; settings: microsomes
# [3] = membrane permeation rate (Pe), 50 mM MOPSO buffer pH 6.5 with 5.0% glycocholic acid, 37° C., 18 hours, read-out: iPAMPA Pe
# [4] = pH 7.4, human hepatic microsome, NADPH(+), read-out: CL NADPH(+)
Compound,"Papp at 18 hours, 50 µM [1, 3] [×10⁻⁶ cm/s]","microsomal CLint at 1 uM [2, 4] [µL/min/mg]","Papp at 18 hours, 50 µM ([1]; pH 6.5) [×10⁻⁶ cm/s]","microsomal CLint at 1 uM ([2]; human, pH 7.4, CL NADPH(+)) [µL/min/mg]","iPAMPA Pe ([1]; membrane permeation rate (Pe), 50 mM MOPSO buffer pH 6.5 with 5.0% glycocholic acid, 37° C., 18 hours)"
CC(C)C[C@H]1C(=O)N[C@H](C(=O)N2CCCCC2)CC(=O)N(C)[C@@H](C)C(=O)N(C)[C@@H](Cc2ccccc2)C(=O)N(C)[C@@H](CC(C)C)C(=O)N[C@@H]([C@@H](C)O)C(=O)N(C)CC(=O)N1C [DP-533] ([NMeA][NMeF][NMeL]T[Sar][NMeL]D-Piperidide; lactam N-7),10,86,,,
CC[C@H](C)[C@H]1C(=O)N[C@@H](C)C(=O)N(C)[C@@H](CC(C)C)C(=O)N[C@@H]([C@@H](C)O)C(=O)N[C@@H](Cc2ccccc2)C(=O)N(C)[C@@H](Cc2ccccc2)C(=O)N(C)[C@@H](CC(C)C)C(=O)N[C@@H](COC(C)(C)C)C(=O)N(C)[C@@H](CC(C)C)C(=O)N(C)[C@@H](C)C(=O)N[C@@H](C)CC(=O)N[C@H](C(C)C)C(=O)N1C [DP-760] (cyclo(A[NMeL]TF[NMeF][NMeL]S(tBu)[NMeL][NMeA][β3hA][dV][NMeI])),,,28,194,
CC(C)C[C@@H]1NC(=O)[C@H](CC(C)C)N(C)C(=O)[C@H](COC(C)(C)C)NC(=O)[C@H](Cc2ccccc2)N(C)C(=O)[C@H](C)N(C)C(=O)C[C@@H](C(=O)N2CCCCC2)NC(=O)[C@H](CC(C)C)N(C)C(=O)[C@H]([C@@H](C)O)NC1=O [DP-698] ([NMeA][NMeF]S(tBu)[NMeL]LT[NMeL]D-Piperidide; lactam N-8),31,142,,,
CC[C@H](C)[C@H]1C(=O)N[C@H](C(=O)N2CCCCC2)CC(=O)N[C@H](C)C(=O)N[C@@H](Cc2ccccc2)C(=O)N(C)[C@@H](C)C(=O)N(C)[C@@H](C(C)C)C(=O)N[C@@H]([C@@H](C)O)C(=O)N(C)CC(=O)N(C)[C@@H](CC(C)C)C(=O)N[C@@H](C)C(=O)N1C [DP-135] ([dA]F[NMeA][NMeV]T[Sar][NMeL]A[NMeI]D-Piperidide; lactam N-10),5.2,15,,,
CC(C)C[C@@H]1NC(=O)[C@H](C)N(C)C(=O)C[C@@H](C(=O)N2CCCCC2)NC(=O)[C@H](Cc2ccccc2)N(C)C(=O)[C@H](CC(C)C)N(C)C(=O)CN(C)C(=O)[C@H]([C@@H](C)O)NC(=O)[C@H](C)N(C)C(=O)[C@H](C(C)C)N(C)C(=O)[C@H](C)NC(=O)[C@H](CC(C)C)N(C)C(=O)[C@H](Cc2ccccc2)N(C)C1=O [DP-133] ([NMeA]L[NMeF][NMeL]A[NMeV][NMeA]T[Sar][NMeL][NMeF]D-Piperidide; lactam N-12),30,51,,,
CC(C)C[C@H]1C(=O)NCC(=O)N[C@@H](C)CC(=O)N(C)CCC(=O)N[C@@H]([C@@H](C)O)C(=O)N(C)[C@@H](C)C(=O)N[C@@H](COC(C)(C)C)C(=O)N(C)[C@@H](Cc2ccccc2)C(=O)N1C [DP-794] (cyclo(G[β3hA][NMeβAla]T[NMeA]S(tBu)[NMeF][NMeL])),3.7,43,,,
CC(C)C[C@H]1C(=O)N[C@H](C(=O)N2CCCCC2)CC(=O)N(C)[C@H](C)C(=O)N(C)[C@@H](Cc2ccccc2)C(=O)N(C)[C@@H](CC(C)C)C(=O)N[C@@H]([C@@H](C)O)C(=O)N(C)[C@@H](CC(C)C)C(=O)N[C@@H](COC(C)(C)C)C(=O)N1C [DP-683] ([dNMeA][NMeF][NMeL]T[NMeL]S(tBu)[NMeL]D-Piperidide; lactam N-8),32,53,,,
CC(C)C[C@H]1C(=O)N[C@H](C(=O)N(C)[C@@H](Cc2ccccc2)C(=O)N[C@@H](C)C(=O)N2CCCCC2)CC(=O)N(C)[C@H](C)C(=O)N(C)[C@@H](Cc2ccccc2)C(=O)N(C)[C@@H](CC(C)C)C(=O)N[C@@H]([C@@H](C)O)C(=O)N(C)[C@@H](C)C(=O)N(C)[C@@H](CC(C)C)C(=O)N[C@@H](C(C)C)C(=O)N1C [DP-313] ([dNMeA][NMeF][NMeL]T[NMeA][NMeL]V[NMeL]D[NMeF]A-Piperidide; lactam N-9),,,21,61,
CC(C)C[C@H]1C(=O)N[C@@H]([C@@H](C)O)C(=O)N(C)[C@@H](C)C(=O)N(C)[C@@H](CC(C)C)C(=O)N[C@H](C(=O)N(C)[C@@H](Cc2ccccc2)C(=O)N[C@@H](C)C(=O)N2CCCCC2)CC(=O)N(C)CCC(=O)N(C)[C@@H](Cc2ccccc2)C(=O)N(C)[C@@H](C(C)C)C(=O)N[C@@H](C(C)C)C(=O)N1C [DP-358] ([NMeβAla][NMeF][NMeV]V[NMeL]T[NMeA][NMeL]D[NMeF]A-Piperidide; lactam N-9),32,82,,,
CC[C@H](C)[C@H]1C(=O)N(C)[C@@H](CC(C)C)C(=O)N(C)[C@@H](Cc2ccccc2)C(=O)N[C@@H](CC(C)C)C(=O)N(C)[C@@H](C(C)C)C(=O)N[C@@H](Cc2ccccc2)C(=O)N[C@@H]([C@@H](C)O)C(=O)N[C@H](C(=O)N2CCCCC2)CC(=O)N(C)CCC(=O)N[C@@H](C)C(=O)N1C [DP-259] ([NMeβAla]A[NMeI][NMeL][NMeF]L[NMeV]FTD-Piperidide; lactam N-10),28,91,,,
CC(C)C[C@@H]1NC(=O)[C@H](CC(C)C)N(C)C(=O)[C@H](CC(C)C)N(C)C(=O)C[C@@H](C(=O)N2CCCCC2)NC(=O)[C@H](Cc2ccccc2)N(C)C(=O)C2CCCN2C(=O)[C@H]([C@@H](C)O)NC(=O)[C@H](Cc2ccccc2)N(C)C1=O (stereo partly drawn) [DP-706] ([NMeL][NMeL]L[NMeF]T[ξP][NMeF]D-Piperidide; lactam N-8),,,48,264,
CC[C@H](C)[C@@H]1NC(=O)[C@H](CC(C)C)N(C)C(=O)CCCCc2cccc(c2)C[C@@H](C(=O)N2CCCCC2)NC(=O)[C@H](CC(C)C)N(C)C(=O)[C@H](C)N(C)C(=O)[C@H]([C@@H](C)O)NC(=O)[C@H](CC(C)C)N(C)C(=O)[C@H](COC(C)(C)C)NC(=O)[C@H](Cc2ccccc2)N(C)C(=O)[C@H](Cc2ccccc2)N(C)C1=O [DP-862] ([NMeL]I[NMeF][NMeF]S(tBu)[NMeL]T[NMeA][NMeL][Phe(3-(CH2)4CO)]-Piperidide; lactam N-10),,118,,,1.0E−07
CC(C)C[C@@H]1NC(=O)[C@H]([C@@H](C)O)NC(=O)[C@H](CC(C)C)N(C)C(=O)[C@H](Cc2ccccc2)N(C)C(=O)CN(C)C(=O)[C@@H](C)NC(=O)C[C@@H](C(=O)N2CCCCC2)NC1=O [DP-742] ([dA][Sar][NMeF][NMeL]TLD-Piperidide; lactam N-7),15,175,,,
CC(C)C[C@H]1C(=O)N[C@H](C(=O)N2CCCCC2)CC(=O)N(C)[C@H](C)C(=O)N(C)[C@@H](CC(C)C)C(=O)N[C@@H]([C@@H](C)O)C(=O)N(C)[C@@H](CC(C)C)C(=O)N[C@@H](COC(C)(C)C)C(=O)N1C [DP-725] ([dNMeA][NMeL]T[NMeL]S(tBu)[NMeL]D-Piperidide; lactam N-7),35,138,,,
CC[C@H](C)[C@H](NC(=O)[C@@H]1CC(=O)N[C@@H](C)C(=O)N[C@@H]([C@@H](C)O)C(=O)N[C@@H](CC(C)C)C(=O)N2CCC[C@H]2C(=O)N[C@@H](Cc2ccccc2)C(=O)N(C)[C@@H](Cc2ccccc2)C(=O)N(C)[C@@H](C(C)C)C(=O)N[C@@H](C)C(=O)N(C)[C@@H](CC(C)C)C(=O)N1)C(=O)N1CCCCC1 [DP-44] (ATLPF[NMeF][NMeV]A[NMeL]DI-Piperidide; lactam N-10),,,20,59,
CC[C@H](C)[C@@H]1NC(=O)[C@H](C)NC(=O)C[C@@H](C(=O)N(C)[C@@H](C)C(=O)N[C@H](C(=O)N2CCC[C@H]2C(=O)N[C@H](C(=O)N[C@@H](C)C(=O)N2CCCCC2)C(C)C)[C@@H](C)CC)NC(=O)[C@@H]2CCCN2C(=O)[C@H](CC(C)C)NC(=O)[C@H](Cc2ccccc2)N(C)C(=O)[C@H]([C@@H](C)O)NC(=O)[C@H](Cc2ccccc2)N(C)C(=O)[C@H](C)N(C)C1=O [DP-665] (AI[NMeA][NMeF]T[NMeF]LPD[NMeA]IPVA-Piperidide; lactam N-9),,,4,77,
CC(C)C[C@@H]1NC(=O)[C@H](CC(C)C)N(C)C(=O)[C@H](C)NC(=O)[C@H](C)N(C)C(=O)[C@H]([C@@H](C)O)NC(=O)CN(C)C(=O)[C@H](C(C)C)N(C)C(=O)[C@H](CC(C)C)N(C)C(=O)[C@H](Cc2ccccc2)NC(=O)CN(C)C(=O)C[C@@H](C(=O)N2CCCCC2)NC1=O [DP-167] ([Sar]F[NMeL][NMeV][Sar]T[NMeA]A[NMeL]LD-Piperidide; lactam N-11),9.5,75,,,
CC[C@H](C)[C@H]1C(=O)N(C)[C@@H](CC(C)C)C(=O)N[C@H](C(=O)N2CCCCC2)CC(=O)N(C)CC(=O)N[C@@H](CC(C)C)C(=O)N[C@@H]([C@@H](C)O)C(=O)N(C)CC(=O)N(C)[C@@H](Cc2ccccc2)C(=O)N[C@@H](C)C(=O)N(C)[C@@H](Cc2ccccc2)C(=O)N(C)[C@@H](CC(C)C)C(=O)N1C [DP-246] ([Sar]LT[Sar][NMeF]A[NMeF][NMeL][NMeI][NMeL]D-Piperidide; lactam N-11),41,42,,,
CC[C@H](C)[C@H]1C(=O)N[C@@H](C)C(=O)N(C)[C@@H](CC(C)C)C(=O)N[C@@H](COC(C)(C)C)C(=O)N(C)[C@@H](CC(C)C)C(=O)N[C@@H](C)CC(=O)N(C)CCC(=O)N[C@@H](Cc2ccccc2)C(=O)N(C)[C@@H](Cc2ccccc2)C(=O)N(C)[C@@H](CC(C)C)C(=O)N[C@@H]([C@@H](C)O)C(=O)N(C)[C@@H](C)C(=O)N1C [DP-756] (cyclo(A[NMeL]S(tBu)[NMeL][β3hA][NMeβAla]F[NMeF][NMeL]T[NMeA][NMeI])),,,30,65,
